Literature values as cited in patent publication US10950327B2, “Methods and tools for detecting, diagnosing, predicting, prognosticating, or treating a neurobehavioral phenotype in a subject” (BlackThorn Therapeutics, Inc., priority 2017, dated 2021).

Tests used:
[1] = test system: mean functional connectivity (Global Brain Connectivity, GBC); details: healthy human subjects
[2] = test system: patients with schizophrenia
[3] = test system: HIV-1
[4] = target: 5HT6 receptors (Homo sapiens, UniProt P50406)
[5] = in vivo
[6] = target: muscarinic M3 (CHRM3) receptor (Homo sapiens, UniProt P20309)
muscarinic M3 (CHRM3) receptor, sequence (P20309 whole entry): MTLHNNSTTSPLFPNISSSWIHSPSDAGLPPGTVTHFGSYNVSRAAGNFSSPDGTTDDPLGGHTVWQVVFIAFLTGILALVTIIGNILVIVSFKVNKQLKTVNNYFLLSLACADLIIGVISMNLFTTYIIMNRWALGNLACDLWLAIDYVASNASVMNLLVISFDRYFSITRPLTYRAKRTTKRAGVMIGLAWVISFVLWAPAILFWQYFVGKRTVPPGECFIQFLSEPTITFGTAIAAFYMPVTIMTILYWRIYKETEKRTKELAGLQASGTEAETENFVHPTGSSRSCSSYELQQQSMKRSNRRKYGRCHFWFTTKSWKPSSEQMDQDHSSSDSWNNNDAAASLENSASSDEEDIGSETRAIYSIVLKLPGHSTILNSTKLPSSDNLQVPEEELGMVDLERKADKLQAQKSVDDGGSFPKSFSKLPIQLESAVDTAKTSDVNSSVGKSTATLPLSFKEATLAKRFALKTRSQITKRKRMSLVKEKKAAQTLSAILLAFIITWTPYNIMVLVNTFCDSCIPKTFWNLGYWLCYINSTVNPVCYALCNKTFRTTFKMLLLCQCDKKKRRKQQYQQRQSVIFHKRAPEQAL

5HT6 receptors, sequence (P50406 whole entry): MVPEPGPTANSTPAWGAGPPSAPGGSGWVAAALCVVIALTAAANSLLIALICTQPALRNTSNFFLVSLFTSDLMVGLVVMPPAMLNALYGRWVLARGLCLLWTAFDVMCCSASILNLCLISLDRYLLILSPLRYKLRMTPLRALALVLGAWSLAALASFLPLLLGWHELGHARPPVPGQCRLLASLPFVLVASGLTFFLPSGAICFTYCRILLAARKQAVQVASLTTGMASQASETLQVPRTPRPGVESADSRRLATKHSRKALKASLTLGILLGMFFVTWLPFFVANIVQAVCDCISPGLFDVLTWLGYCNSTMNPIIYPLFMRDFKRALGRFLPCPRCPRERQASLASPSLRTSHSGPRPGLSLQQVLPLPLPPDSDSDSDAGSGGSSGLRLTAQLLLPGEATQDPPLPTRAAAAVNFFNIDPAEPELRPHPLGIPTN

SMILES: CCN(CC)C(=O)[C@@H]1C=C2c3cccc4[nH]cc(c34)C[C@H]2N(C)C1 [LSD, lysergic acid diethylamide]
- change in mean functional connectivity (Global Brain Connectivity, GBC) ([1]; acute administration, fMRI-derived cortical map): large increase in occipital visual cortex

SMILES: Cc1nc2cccc(C(F)(F)F)c2c(=O)n1-c1ccc(OCCCN2CCCC2)cc1 [MK-0249]
- improvement of cognitive deficits [2]: failed to improve cognitive deficits

SMILES: O=C1Nc2ccc(Cl)cc2[C@@](C#CC2CC2)(C(F)(F)F)O1 [efavirenz]
- suppression of HIV-1 [3]: effective in suppressing HIV-1
- activity at 5HT6 receptors [4]: inverse agonist activity
- risk of neuropsychiatric symptoms [5]: increase the risk of neuropsychiatric symptoms
- activity at muscarinic M3 (CHRM3) receptor [6]: antagonist activity

SMILES: O=C(c1ccc(F)cc1)C1CCN(CCn2c(=O)[nH]c3ccccc3c2=O)CC1 [ketanserin]
- effect on LSD-induced neural change and behavioral effects ([1]; pre-administration before LSD): blocked
